Test results: ChEMBL document CHEMBL1136822, “Synthesis, antiviral activity and pharmacokinetics of P1/P1' substituted 3-aminoindazole cyclic urea HIV protease inhibitors” (Bioorg Med Chem Lett, 2003)

Legend:
[1] = Pharmacokinetic activity (Cmax) (10 mg/kg) was determined in dog; type: ADME, organism-based, Canis lupus familiaris; parameters: dose 10 mg/kg; conditions: in vivo
Homo sapiens = organism: Homo sapiens; assay: Protein binding adjusted IC90s for the I84V mutant was determined; type: functional
[2] = system: Human immunodeficiency virus 1; assay: Inhibitory concentration of compound against HIV HXB2 strain; type: functional
[3] = Half life period in dog; type: ADME, organism-based, Canis lupus familiaris; conditions: in vivo
[4] = Effect on increase in RNA IC90 value after HSA (45 mg/mL) and AAG (1 mg/mL) were determined in absence or presence of two plasma proteins (45 mg/mL human serum albumin and 1 mg/mL alpha-1-acid glycoprotein).; type: functional
MT2 [5] = assay: Inhibitory concentration of compound against HIV V82F/[…] mutant in MT2 cells; type: functional; conditions: Homo sapiens
[6] = 8 hour trough Blood level in dog was measured after administration of compound; type: ADME, organism-based, Canis lupus familiaris; conditions: read-out: C 8 h
[7] = Oral bioavailability in dog (dose 10 mg/kg); type: ADME, organism-based, Canis lupus familiaris; conditions: in vivo
[8] = molecular target: Human immunodeficiency virus type 1 protease (Human immunodeficiency virus 1, UniProt Q72874); assay: Binding affinity against HIV-Protease was determined
MT2 [9] = assay: Inhibitory concentration of compound against HIV […] mutant in MT2 cells; type: functional; conditions: Homo sapiens
[10] = system: Human immunodeficiency virus 1; assay: Resistance factor of compound towards HIV-1 was measured as inhibitory concentration of compound required to inhibit viral RNA transcripts accumulation after infection in cells; type: functional
[11] = system: Human immunodeficiency virus 1; assay: Inhibitory concentration of compound against HIV abbott mutant virus 25-fold resistant to ritonavir; type: functional
[12] = Half life period (10 mg/kg) was determined in dog; type: ADME, organism-based, Canis lupus familiaris; conditions: in vivo
[13] = Pharmacokinetic activity (Cmax) in dog; type: ADME, organism-based, Canis lupus familiaris; conditions: in vivo
[14] = system: Human immunodeficiency virus 1; assay: Inhibitory concentration of compound against HIV vertex mutant virus 19-fold resistant to […]; type: functional
[15] = system: Human immunodeficiency virus 1; assay: Inhibitory concentration of compound against HIV vertex mutant virus 19-fold resistant to amprenavir; type: functional

| Structure (SMILES) | Cmax [1] [µM] | IC90 (Homo sapiens) [nM] | IC90 [2] [nM] | half-life [3] [h] | Fold shift [4] | IC90 (MT2 [5]) [nM] | concentration at 8 h [6] [µM] | bioavailability [7] [%] | Ki [8] [nM] | IC90 (MT2 [9]) [nM] | IC90 [10] [nM] | IC90 [11] [nM] | half-life [12] [h] | Cmax [13] [µM] | IC90 [14] [nM] | IC90 [15] [nM] |
| --- | --- | --- | --- | --- | --- | --- | --- | --- | --- | --- | --- | --- | --- | --- | --- | --- |
| Cc1cccc(C[C@@H]2[C@H](O)[C@@H](O)[C@@H](Cc3cccc(C)c3)N(Cc3ccc4[nH]nc(N)c4c3)C(=O)N2Cc2ccccc2)c1 | 3.6 | 300 | 26 | 3.9 | 12 | 2680 | 0.35 | 20 | 0.062 | 104 | 25 | 1760 | – | – | – | – |
| CCCCN1C(=O)N(Cc2ccc3[nH]nc(N)c3c2)[C@H](Cc2cccc(C)c2)[C@H](O)[C@@H](O)[C@H]1Cc1cccc(C)c1 | – | 775 | 54 | – | 25 | 1600 | – | – | 0.045 | – | 31 | 1600 | – | – | – | – |
| CCCCN1C(=O)N(Cc2ccc3[nH]nc(N)c3c2)[C@H](Cc2cc(C)cc(C)c2)[C@H](O)[C@@H](O)[C@H]1Cc1cc(C)cc(C)c1 | – | – | 56 | – | – | – | – | – | 0.19 | – | 66 | 7540 | – | – | – | – |
| Nc1n[nH]c2ccc(CN3C(=O)N(Cc4ccccc4)[C@H](Cc4ccccc4)[C@H](O)[C@@H](O)[C@H]3Cc3ccccc3)cc12 | – | – | – | – | – | – | 2.8 | 60 | – | – | – | – | 3.5 | 9.6 | – | – |
| CCc1ccc(C[C@@H]2[C@H](O)[C@@H](O)[C@@H](Cc3ccc(CC)cc3)N(Cc3ccc4[nH]nc(N)c4c3)C(=O)N2Cc2ccccc2)cc1 | – | 247 | 81 | – | 13 | > 1600 | – | – | 0.072 | 410 | 19 | 12600 | – | – | – | – |
| Cc1cc(C)cc(C[C@@H]2[C@H](O)[C@@H](O)[C@@H](Cc3cc(C)cc(C)c3)N(Cc3ccc4[nH]nc(N)c4c3)C(=O)N2Cc2ccccc2)c1 | – | 350 | 100 | – | 7 | – | – | – | 0.2 | – | 50 | > 7300 | – | – | – | – |
| Cc1ccc(C[C@@H]2[C@H](O)[C@@H](O)[C@@H](Cc3ccc(C)cc3)N(Cc3ccc4[nH]nc(N)c4c3)C(=O)N2Cc2ccccc2)cc1 | 3.6 | 192 | 17 | – | 16 | > 1700 | 0.35 | 29 | 0.047 | 310 | 12 | 1880 | 3.9 | – | 24 | – |
| CCCCN1C(=O)N(Cc2ccc3[nH]nc(N)c3c2)[C@H](Cc2ccc(CC)cc2)[C@H](O)[C@@H](O)[C@H]1Cc1ccc(CC)cc1 | – | 220 | 22 | – | 22 | > 1800 | – | – | 0.094 | 260 | 10 | 4030 | – | – | – | – |
| Nc1[nH]nc2ccc(CN3C(=O)N(Cc4ccccc4)[C@H](Cc4ccccc4)[C@H](O)[C@@H](O)[C@H]3Cc3ccccc3)cc12 | – | 496 | 92 | – | – | 2100 | – | – | – | 370 | 62 | 1520 | – | – | – | 257 |
| CCCCN1C(=O)N(Cc2ccc3[nH]nc(N)c3c2)[C@H](Cc2ccc(C)cc2)[C@H](O)[C@@H](O)[C@H]1Cc1ccc(C)cc1 | – | 420 | 16 | 1.6 | 35 | 1750 | 0.07 | 23 | 0.037 | – | 12 | 1700 | – | 1.2 | 7 | – |
| CCCCN1C(=O)N(Cc2ccc3[nH]nc(N)c3c2)[C@H](Cc2ccccc2)[C@H](O)[C@@H](O)[C@H]1Cc1ccccc1 | – | 952 | 69 | 7.7 | 17 | 1790 | 7.2 | 57 | 0.021 | 390 | 56 | 1470 | – | 11.7 | 87 | – |
